Values joined by “and” are separate entries in the source; they are usually repeats but may differ in a detail not shown here. Equal entries are not always repeated.
System: Hs578T complex spheroid growth, percent test/control
Test: Anticancer human tumor Hs578T cell line growth inhibition [AhR];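 note: luminescent viability signal as a proxy for spheroid growth; spheroids exposed to agents for one week after three days of growth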
Conditions: for viability, T/C: stronger effect = lower value
Method in brief: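 Complex tumor spheroids co-cultured with HUVEC and human MSC stroma; AhR antagonists tested in combination with standard-of-care and investigational agents. Top concentration at or near clinical Cmax (else 10 microM), half-log dilutions; growth expressed as percent test/control.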

[1] = curve of first compound, second compound 0.1 µM
[2] = curve of first compound, second compound 0.316 µM
[3] = curve of first compound, second compound 1 µM
[4] = curve of first compound, second compound 3.16 µM
[5] = curve of first compound, second compound 10 µM
[6] = second compound 0.1 µM, first compound 0.0316 µM
[7] = second compound 0.1 µM, first compound 0.1 µM
[8] = second compound 0.1 µM, first compound 0.316 µM
[9] = second compound 0.1 µM, first compound 1 µM
[10] = second compound 0.1 µM, first compound 3.16 µM
[11] = second compound 0.1 µM, first compound 10 µM
[12] = second compound 0.316 µM, first compound 0.0316 µM
[13] = second compound 0.316 µM, first compound 0.1 µM
[14] = second compound 0.316 µM, first compound 0.316 µM
[15] = second compound 0.316 µM, first compound 1 µM
[16] = second compound 0.316 µM, first compound 3.16 µM
[17] = second compound 0.316 µM, first compound 10 µM
[18] = second compound 1 µM, first compound 0.0316 µM
[19] = second compound 1 µM, first compound 0.1 µM
[20] = second compound 1 µM, first compound 0.316 µM
[21] = second compound 1 µM, first compound 1 µM
[22] = second compound 1 µM, first compound 3.16 µM
[23] = second compound 1 µM, first compound 10 µM
[24] = second compound 3.16 µM, first compound 0.0316 µM
[25] = second compound 3.16 µM, first compound 0.1 µM
[26] = second compound 3.16 µM, first compound 0.316 µM
[27] = second compound 3.16 µM, first compound 1 µM
[28] = second compound 3.16 µM, first compound 3.16 µM
[29] = second compound 3.16 µM, first compound 10 µM
[30] = second compound 10 µM, first compound 0.0316 µM
[31] = second compound 10 µM, first compound 0.1 µM
[32] = second compound 10 µM, first compound 0.316 µM
[33] = second compound 10 µM, first compound 1 µM
[34] = second compound 10 µM, first compound 3.16 µM
[35] = second compound 10 µM, first compound 10 µM

`CC1COCCN1c1cc(C2(S(C)(=N)=O)CC2)nc(-c2ccnc3[nH]ccc23)n1` (configuration not stated) + Cc1ccccc1N=Nc1ccc(NC(=O)c2ccnn2C)c(C)c1 gave an IC50 [1] of 9250 nM, an IC50 [2] of over 10000 nM and an IC50 [3] of 9240 nM. The IC50 [4] was over 10000 nM, the IC50 [5] was over 10000 nM and the viability, T/C [6] was 110%. The viability, T/C [7] was 102%, the viability, T/C [8] was 102% and the viability, T/C [9] was 96.6%. The viability, T/C [10] was 77.9%, the viability, T/C [11] was 47.9% and the viability, T/C [12] was 101%. The viability, T/C [13] was 101%, the viability, T/C [14] was 100% and the viability, T/C [15] was 93.4%. For the same molecule, the viability, T/C [16] was 76.9%, the viability, T/C [17] was 52.4% and the viability, T/C [18] was 94.6%. The viability, T/C [19] was 102%, the viability, T/C [20] was 99.5% and the viability, T/C [21] was 86.3%. It also gave a viability, T/C [22] of 73.7%, a viability, T/C [23] of 48.1% and a viability, T/C [24] of 85.4%. The viability, T/C [25] was 93.3%, the viability, T/C [26] was 89.7% and the viability, T/C [27] was 84.4%. The viability, T/C [28] was 69.2%, the viability, T/C [29] was 51.4% and the viability, T/C [30] was 62.9%. The viability, T/C [31] was 62%, the viability, T/C [32] was 76.1% and the viability, T/C [33] was 68.5%. For the same molecule, the viability, T/C [34] was 61.6% and the viability, T/C [35] was 47.7%.

Work on `Cn1ncnc1C1c2n[nH]c(=O)c3cc(F)cc(c23)NC1c1ccc(F)cc1` (configuration not stated) + Cc1cncc(-c2nc(NCCc3c[nH]c4ccccc34)c3ncn(C(C)C)c3n2)c1 yielded an IC50 [1] of over 100 nM, an IC50 [2] of over 100 nM and an IC50 [3] of over 100 nM. For the same molecule, the IC50 [4] was over 100 nM, the IC50 [5] was under 0.316 nM and the viability, T/C (second compound 0.1 µM, first compound 0.000316 µM) was 103%. It also gave a viability, T/C (second compound 0.1 µM, first compound 0.001 µM) of 104%, a viability, T/C (second compound 0.1 µM, first compound 0.00316 µM) of 112% and a viability, T/C (second compound 0.1 µM, first compound 0.01 µM) of 99%. It also gave a viability, T/C [6] of 111%, a viability, T/C [7] of 108% and a viability, T/C (second compound 0.316 µM, first compound 0.000316 µM) of 107%. It also gave a viability, T/C (second compound 0.316 µM, first compound 0.001 µM) of 115%, a viability, T/C (second compound 0.316 µM, first compound 0.00316 µM) of 116% and a viability, T/C (second compound 0.316 µM, first compound 0.01 µM) of 106%. For the same molecule, the viability, T/C [12] was 97.4%, the viability, T/C [13] was 108% and the viability, T/C (second compound 1 µM, first compound 0.000316 µM) was 101%. It also gave a viability, T/C (second compound 1 µM, first compound 0.001 µM) of 105%, a viability, T/C (second compound 1 µM, first compound 0.00316 µM) of 98% and a viability, T/C (second compound 1 µM, first compound 0.01 µM) of 98.5%. It also gave a viability, T/C [18] of 97%, a viability, T/C [19] of 97.6% and a viability, T/C (second compound 3.16 µM, first compound 0.000316 µM) of 67.8%. For the same molecule, the viability, T/C (second compound 3.16 µM, first compound 0.001 µM) was 73.3%, the viability, T/C (second compound 3.16 µM, first compound 0.00316 µM) was 72.4% and the viability, T/C (second compound 3.16 µM, first compound 0.01 µM) was 69%. It also gave a viability, T/C [24] of 70.5%, a viability, T/C [25] of 64.1% and a viability, T/C (second compound 10 µM, first compound 0.000316 µM) of 8.48%. For the same molecule, the viability, T/C (second compound 10 µM, first compound 0.001 µM) was 9.41%, the viability, T/C (second compound 10 µM, first compound 0.00316 µM) was 9.77% and the viability, T/C (second compound 10 µM, first compound 0.01 µM) was 7.44%. For the same molecule, the viability, T/C [30] was 9.58% and the viability, T/C [31] was 9.69%.

`CCc1c2c(nc3ccc(O)cc13)-c1cc3c(c(=O)n1C2)COC(=O)[C@]3(O)CC` + CC(CO)NC(=O)c1cc(-c2ccc(Cl)cc2)nn(-c2cnn(C)c2)c1=O gave an IC50 [1] of 207 nM, an IC50 [2] of 158 nM and an IC50 [3] of 182 nM. It also gave an IC50 [4] of 193 nM, an IC50 [5] of 194 nM and a viability, T/C (second compound 0.1 µM, first compound 0.000949 µM) of 87.1%. It also gave a viability, T/C (second compound 0.1 µM, first compound 0.003 µM) of 86.2%, a viability, T/C (second compound 0.1 µM, first compound 0.00949 µM) of 78.3% and a viability, T/C (second compound 0.1 µM, first compound 0.03 µM) of 76.7%. The viability, T/C (second compound 0.1 µM, first compound 0.0949 µM) was 65%, the viability, T/C (second compound 0.1 µM, first compound 0.3 µM) was 42.7% and the viability, T/C (second compound 0.316 µM, first compound 0.000949 µM) was 79.3%. It also gave a viability, T/C (second compound 0.316 µM, first compound 0.003 µM) of 88%, a viability, T/C (second compound 0.316 µM, first compound 0.00949 µM) of 82.3% and a viability, T/C (second compound 0.316 µM, first compound 0.03 µM) of 66.3%. The viability, T/C (second compound 0.316 µM, first compound 0.0949 µM) was 58.2%, the viability, T/C (second compound 0.316 µM, first compound 0.3 µM) was 42% and the viability, T/C (second compound 1 µM, first compound 0.000949 µM) was 81.6%. For the same molecule, the viability, T/C (second compound 1 µM, first compound 0.003 µM) was 85%, the viability, T/C (second compound 1 µM, first compound 0.00949 µM) was 86.2% and the viability, T/C (second compound 1 µM, first compound 0.03 µM) was 72.5%. It also gave a viability, T/C (second compound 1 µM, first compound 0.0949 µM) of 59.1%, a viability, T/C (second compound 1 µM, first compound 0.3 µM) of 43.5% and a viability, T/C (second compound 3.16 µM, first compound 0.000949 µM) of 89.3%. The viability, T/C (second compound 3.16 µM, first compound 0.003 µM) was 94.5%, the viability, T/C (second compound 3.16 µM, first compound 0.00949 µM) was 89.9% and the viability, T/C (second compound 3.16 µM, first compound 0.03 µM) was 74.9%. The viability, T/C (second compound 3.16 µM, first compound 0.0949 µM) was 57.5%, the viability, T/C (second compound 3.16 µM, first compound 0.3 µM) was 45.5% and the viability, T/C (second compound 10 µM, first compound 0.000949 µM) was 82.5%. For the same molecule, the viability, T/C (second compound 10 µM, first compound 0.003 µM) was 82.7%, the viability, T/C (second compound 10 µM, first compound 0.00949 µM) was 78.1% and the viability, T/C (second compound 10 µM, first compound 0.03 µM) was 73.3%. It also gave a viability, T/C (second compound 10 µM, first compound 0.0949 µM) of 64.8% and a viability, T/C (second compound 10 µM, first compound 0.3 µM) of 41.2%.

For `CCN(c1cc(-c2ccc(CN3CCOCC3)cc2)cc(C(=O)NCc2c(C)cc(C)[nH]c2=O)c1C)C1CCOCC1`, the viability, T/C (compound 0.00949 µM) was 103% and 101% and 104%, the viability, T/C (compound 0.03 µM) was 105% and 99% and 108% and the viability, T/C (compound 0.0949 µM) was 109% and 101% and 95.7%. The viability, T/C (compound 0.3 µM) was 91.3% and 103% and 98.4%, the viability, T/C (compound 0.949 µM) was 100% and 97.4% and 94.9% and the viability, T/C (compound 3 µM) was 95.2% and 97.7% and 99.6%. It also gave an IC50 (curve of compound) of over 3000 nM.

With `CC(C)c1c(-c2ccccc2)nc2c(C#N)c[nH]n2c1=O` + Cc1cncc(-c2nc(NCCc3c[nH]c4ccccc34)c3ncn(C(C)C)c3n2)c1 the IC50 [1] was over 10000 nM, the IC50 [2] was over 10000 nM and the IC50 [3] was over 10000 nM. The IC50 [4] was over 10000 nM, the IC50 [5] was under 31.6 nM and the viability, T/C [6] was 114%. It also gave a viability, T/C [7] of 113%, a viability, T/C [8] of 110% and a viability, T/C [9] of 108%. It also gave a viability, T/C [10] of 109%, a viability, T/C [11] of 96.4% and a viability, T/C [12] of 112%. The viability, T/C [13] was 104%, the viability, T/C [14] was 113% and the viability, T/C [15] was 103%. For the same molecule, the viability, T/C [16] was 109%, the viability, T/C [17] was 107% and the viability, T/C [18] was 99.6%. It also gave a viability, T/C [19] of 101%, a viability, T/C [20] of 107% and a viability, T/C [21] of 100%. For the same molecule, the viability, T/C [22] was 102%, the viability, T/C [23] was 99.5% and the viability, T/C [24] was 61.3%. For the same molecule, the viability, T/C [25] was 65.5%, the viability, T/C [26] was 68.6% and the viability, T/C [27] was 62.9%. It also gave a viability, T/C [28] of 55.8%, a viability, T/C [29] of 66.9% and a viability, T/C [30] of 4.95%. For the same molecule, the viability, T/C [31] was 6.12%, the viability, T/C [32] was 4.81% and the viability, T/C [33] was 4.87%. It also gave a viability, T/C [34] of 5.51% and a viability, T/C [35] of 7.39%.
